This note sets out measurements from ChEMBL document CHEMBL3046067, “Synthesis of some novel 3,5-disubstituted 1,3,4-oxadiazole derivatives and anticancer activity on EAC animal model” (2011).

The test system of assay [1] is Mus musculus. In words: Antitumor activity against Mus musculus (mouse) EAC xenografted in Mus musculus Swiss albino (mouse) assessed as restoration of hemoglobin level at 50 mg/kg, ip qd for 7 days. It counts as functional, organism-based. Further details: dose 50 mg/kg.
The nature of assay [2]: Antitumor activity against Mus musculus (mouse) EAC xenografted in Mus musculus Swiss albino (mouse) assessed as non-viable cells at 50 mg/kg, ip qd for 7 days relative to control. It counts as functional, Ehrlich. The settings on record: route intraperitoneal.
Assay [3] has as its system Mus musculus. In words: Antitumor activity against Mus musculus (mouse) EAC xenografted in Mus musculus Swiss albino (mouse) assessed as restoration of RBC count at 50 mg/kg, ip qd for 7 days. It counts as functional, organism-based. Further details: dose 50 mg/kg.
Assay [4] has as its system Mus musculus. In words: Antitumor activity against Mus musculus (mouse) EAC xenografted in Mus musculus Swiss albino (mouse) assessed as restoration of WBC count at 50 mg/kg, ip qd for 7 days. Further details: dose 50 mg/kg. It counts as functional, organism-based.
In assay [5] the test system is Mus musculus. Put plainly: Antitumor activity against Mus musculus (mouse) EAC xenografted in Mus musculus Swiss albino (mouse) assessed as increase in average life span at 50 mg/kg, ip qd for 7 days relative to control. It counts as functional. The settings on record: 168 h, route intraperitoneal, read-out: Survival.
A short description of assay [6]: Antitumor activity against Mus musculus (mouse) EAC xenografted in Mus musculus Swiss albino (mouse) assessed as inhibition of tumor formation at 50 mg/kg, ip qd for 7 days relative to control. It counts as functional. The settings on record: Ehrlich, 168 h, route intraperitoneal.
Assay [7] has as its system Mus musculus. Put plainly: Antitumor activity against Mus musculus (mouse) EAC xenografted in Mus musculus Swiss albino (mouse) assessed as increase in median life span at 50 mg/kg, ip qd for 7 days relative to control. It counts as functional. The conditions noted are these: 168 h, route intraperitoneal, read-out: Survival.
Assay [8] can be described thus: Antitumor activity against Mus musculus (mouse) EAC xenografted in Mus musculus Swiss albino (mouse) assessed as viable cells at 50 mg/kg, ip qd for 7 days relative to control. It counts as functional, Ehrlich. The settings on record: route intraperitoneal.
Assay [9] deals with Mus musculus. Put plainly: Antitumor activity against Mus musculus (mouse) EAC xenografted in Mus musculus Swiss albino (mouse) assessed as increase in median life span at 20 mg/kg, ip qd for 7 days relative to control. It counts as functional. The conditions noted are these: 168 h, route intraperitoneal.
Assay [10] relates to Mus musculus. Put plainly: Antitumor activity against Mus musculus (mouse) EAC xenografted in Mus musculus Swiss albino (mouse) assessed as increase in average life span at 20 mg/kg, ip qd for 7 days relative to control. The conditions noted are these: 168 h, route intraperitoneal. It counts as functional.
Assay [11] in a line: Antitumor activity against Mus musculus (mouse) EAC xenografted in Mus musculus Swiss albino (mouse) assessed as non-viable cells at 20 mg/kg, ip qd for 7 days relative to control. It counts as functional, Ehrlich. The conditions noted are these: route intraperitoneal.
Assay [12] can be described thus: Antitumor activity against Mus musculus (mouse) EAC xenografted in Mus musculus Swiss albino (mouse) assessed as viable cells at 20 mg/kg, ip qd for 7 days relative to control. It counts as functional, Ehrlich. The settings on record: route intraperitoneal.

Active and inactive are the calls of the source. The rule behind the calls is not given here.

A word on the inhibition in vivo: it is the percentage by which the read-out fell short of the control. Regarding `O=[N+]([O-])c1ccc(-c2nn(CNc3ccccn3)c(=S)o2)cc1`, the result in the assay with Mus musculus [1], in the assay on Mus musculus [3] and in the assay on Mus musculus [4] was Active. The values for the Activity in [2] and in [8] were 63.17% and 36.83%, respectively. Moreover, the percent increase in average life span at 50 mg/kg in the assay with Mus musculus [5] was found to be 38.5%. In addition, the inhibition in vivo at 50 mg/kg in assay [6] came out at 60.8%. For the same molecule, the Increase in median life span at 50 mg/kg in the assay on Mus musculus [7] turned out to be 36.9%.

For the molecule `O=c1[nH]cc(F)c(=O)[nH]1` [FLUOROURACIL], the survival at 20 mg/kg is 90.8% in the assay with Mus musculus [9] and 92.7% in the assay with Mus musculus [10]. The Activity in [11] came out at 85.17%; in assay [12], 14.83%.

In the case of `Oc1ccc(-c2nn(CNc3ccccn3)c(=S)o2)cc1`, the outcome in the assay with Mus musculus [1], in the assay on Mus musculus [3] and in the assay with Mus musculus [4] was Active. The values for the Activity in assay [2] and in [8] were 77.5% and 22.5%, respectively. For the same molecule, the percent increase in average life span at 50 mg/kg in the assay on Mus musculus [5] worked out at 80.7%. For the same molecule, in [6], the inhibition in vivo at 50 mg/kg was found to be 73.9%. For the same molecule, the Increase in median life span at 50 mg/kg in the assay on Mus musculus [7] worked out at 76.9%.

Take `O=[N+]([O-])c1ccc(-c2nn(CNc3ccccc3)c(=S)o2)cc1`: the result with Mus musculus [1], in the assay on Mus musculus [3] and with Mus musculus [4] was Active. Besides, the Activity in assay [2] worked out at 66.5%; in [8], 33.5%. In addition, the percent increase in average life span at 50 mg/kg in the assay with Mus musculus [5] was 46.4%. Besides, in assay [6], the inhibition in vivo at 50 mg/kg worked out at 56.5%. Further, the Increase in median life span at 50 mg/kg in the assay with Mus musculus [7] was found to be 44.6%.

As for `S=c1oc(-c2ccc(Cl)cc2Cl)nn1CNc1ccccn1`, the outcome with Mus musculus [1], in the assay with Mus musculus [3] and with Mus musculus [4] was Active. The Activity was 72.67% in assay [2] and 27.33% in assay [8]. In addition, the percent increase in average life span at 50 mg/kg with Mus musculus [5] was found to be 53.6%. For the same molecule, the inhibition in vivo at 50 mg/kg in assay [6] stood at 52.2%. Further, the Increase in median life span at 50 mg/kg in the assay with Mus musculus [7] turned out to be 47.7%.

In the case of `Cc1ccc(-c2nn(CNc3ccccn3)c(=S)o2)cc1`, the outcome in the assay on Mus musculus [1], in the assay with Mus musculus [3] and in the assay on Mus musculus [4] was Active. Further, the Activity in assay [2] came to 75.17%; in assay [8], 24.83%. The percent increase in average life span at 50 mg/kg in the assay with Mus musculus [5] turned out to be 74%. In addition, the inhibition in vivo at 50 mg/kg in [6] worked out at 56.5%. In addition, the Increase in median life span at 50 mg/kg with Mus musculus [7] amounted to 73.8%.
